Data reported in ChEMBL document CHEMBL1145261, “Design and synthesis of novel diphenacoum-derived, conformation-restricted vitamin K 2,3-epoxide reductase inhibitors” (Bioorg Med Chem Lett, 2005).

Molecular target: T1, Vitamin K epoxide reductase complex subunit 1 (Bos taurus, UniProt Q6B4J2)
T1 sequence (Q6B4J2 whole entry): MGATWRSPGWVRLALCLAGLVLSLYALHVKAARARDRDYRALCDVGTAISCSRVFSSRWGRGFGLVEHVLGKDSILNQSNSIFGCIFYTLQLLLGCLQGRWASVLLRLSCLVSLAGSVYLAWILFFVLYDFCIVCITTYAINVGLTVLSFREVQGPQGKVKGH
Test: Inhibitory concentration against beef liver Vitamin K epoxide reductase (vitamin K 2,3-epoxide reductase)

SMILES | IC50
O=c1oc2ccccc2c(O)c1C1CC(c2ccc(-c3ccccc3)cc2)Oc2ccccc21 (configuration not stated) | 40 nM
O=c1oc2ccccc2c2c1C1CC(c3ccc(-c4ccccc4)cc3)(Oc3ccccc31)O2 (configuration not stated) | 1000 nM
